Assay results published in ChEMBL document CHEMBL1152840, “Antileukotrienic phenethylamido derivatives of arylalkanoic acids in the treatment of ulcerative colitis” (Eur J Med Chem, 2009).

Experiments:
[1] = Lipophilicity, log K by HPLC method; format: physicochemical
[2] = Antileukotrienic activity in rat PMNC assessed as inhibition of Ca2+ ionophore A23187-induced LTB4 production by RIA; format: functional
Rattus norvegicus = assay: Antiinflammatory activity in rat assessed as inhibition of carrageenan-induced edema at 100 mg/kg relative to untreated control; format: functional
Mus musculus [3] = assay: Antiinflammatory activity in mouse assessed as inhibition of arachidonic acid-induced ear lobe edema at 200 mg/kg, po administered 1 hr before arachidonic acid challenge measured after 1 hr relative to untreated control; format: functional
Mus musculus [4] = assay: Antiinflammatory activity in mouse assessed as inhibition of arachidonic acid-induced ear lobe hyperemia at 200 mg/kg, po administered 1 hr before arachidonic acid challenge measured after 1 hr relative to untreated control; format: functional
Mus musculus [5] = assay: Antiinflammatory activity against dextrane disodium sulfate-induced ulcerative colitis in BALB/c mouse assessed as diseased animal with stool consistency at 250 mg/kg administered 1 hr before dextrane disodium sulfate challenge; format: functional
Mus musculus [6] = assay: Antiinflammatory activity against dextrane disodium sulfate-induced ulcerative colitis in BALB/c mouse assessed as diseased animal with rectal prolapse at 250 mg/kg administered 1 hr before dextrane disodium sulfate challenge; format: functional
Mus musculus [7] = assay: Antiinflammatory activity against dextrane disodium sulfate-induced ulcerative colitis in BALB/c mouse assessed as diseased animal with small intestine bleeding at 250 mg/kg administered 1 hr before dextrane disodium sulfate challenge; format: functional
Mus musculus [8] = assay: Antiinflammatory activity against dextrane disodium sulfate-induced ulcerative colitis in BALB/c mouse assessed as diseased animal with large intestine bleeding at 250 mg/kg administered 1 hr before dextrane disodium sulfate challenge; format: functional
Mus musculus [9] = assay: Antiinflammatory activity against dextrane disodium sulfate-induced ulcerative colitis in BALB/c mouse assessed as length of colon at 250 mg/kg administered 1 hr before dextrane disodium sulfate challenge; format: functional

| SMILES | log K [1] | IC50 [2] [µM] | inhibition in vivo at 100 mg/kg (Rattus norvegicus) [%] | inhibition in vivo at 200 mg/kg (Mus musculus [3]) [%] | inhibition in vivo at 200 mg/kg (Mus musculus [4]) [%] | Activity (Mus musculus [5]) [%] | Activity (Mus musculus [6]) [%] | Activity (Mus musculus [7]) [%] | Activity (Mus musculus [8]) [%] | Activity (Mus musculus [9]) [cm] |
| --- | --- | --- | --- | --- | --- | --- | --- | --- | --- | --- |
| CN(CCc1ccccc1)C(=O)Cc1ccc(OCCCOc2ccc(CCC(=O)O)cc2)cc1 | 0.324 | 11 | 61 | 23 | 3.7 | 80 | 0 | 0 | 100 | 6.8 |
| CC(CCc1ccc(OCCCOc2ccc(CC(=O)N(C)CCc3ccccc3)cc2)cc1)C(=O)O (stereo not given) | 0.636 | 7.5 | – | 16 | 3.7 | 100 | 0 | 0 | 60 | 7.2 |
| COc1cc(/C=C/C(=O)O)ccc1OCCCCOc1ccc(CC(=O)N(C)CCc2ccccc2)cc1 | 0.274 | 13 | 5.5 | 23 | 0 | 80 | 0 | 0 | 100 | 6.8 |
| CN(CCc1ccccc1)C(=O)Cc1ccc(OCCCOc2ccc(CCCC(=O)O)cc2)cc1 | 0.451 | 12 | 30 | 13 | 3.4 | – | – | – | – | – |
| CC(C(=O)O)c1ccc(OCCCCOc2ccc(CC(=O)N(C)CCc3ccccc3)cc2)c(Cl)c1 (stereo not given) | 0.554 | 5.6 | 44 | 37 | 0 | 0 | 0 | 0 | 60 | 7.9 |
| CN(CCc1ccccc1)C(=O)Cc1ccc(OCCOc2ccc(/C=C/C(=O)O)cc2)cc1 | 0.081 | 47 | 43 | 9.4 | 3.4 | – | – | – | – | – |
| CC(CCc1ccc(OCCCCOc2ccc(CC(=O)N(C)CCc3ccccc3)cc2)cc1)C(=O)O (stereo not given) | 0.752 | 10 | 56 | 22 | 3.7 | 0 | 0 | 0 | 60 | 9.3 |
| COc1cc(CCC(=O)O)ccc1OCCCCOc1ccc(CC(=O)N(C)CCc2ccccc2)cc1 | 0.267 | 8.1 | 27 | 20 | 11 | 60 | 0 | 0 | 100 | 7 |
| CN(CCc1ccccc1)C(=O)Cc1ccc(OCCOc2ccc(CCCC(=O)O)cc2)cc1 | 0.231 | 9.5 | 36 | 12 | 3.6 | 80 | 0 | 0 | 100 | 7.1 |
| COc1cc(CCC(=O)O)ccc1OCCCOc1ccc(CC(=O)N(C)CCc2ccccc2)cc1 | 0.175 | – | 26 | 12 | 7.4 | – | – | – | – | – |
| O=C(O)c1cc(/N=N/c2ccc(S(=O)(=O)Nc3ccccn3)cc2)ccc1O [SULFASALAZINE] | – | – | – | – | – | 53 | 0 | 0 | 80 | 9.1 |
| CC(C(=O)O)c1cccc2ccc(OCCCOc3ccc(CC(=O)NCCc4ccccc4)cc3)cc12 (stereo not given) | 0.617 | 5.7 | 30 | 12 | 0 | – | – | – | – | – |
| COc1cc(/C=C/C(=O)O)ccc1OCCCOc1ccc(CC(=O)N(C)CCc2ccccc2)cc1 | 0.166 | – | 20 | 16 | 7.1 | – | – | – | – | – |
| COc1cc(/C=C/C(=O)O)ccc1OCCOc1ccc(CC(=O)N(C)CCc2ccccc2)cc1 | -0.061 | – | 10 | 23 | 0 | 40 | 0 | 0 | 40 | 7.2 |
| CC(C(=O)O)c1ccc(OCCCOc2ccc(CC(=O)N(C)CCc3ccccc3)cc2)cc1 (stereo not given) | 0.344 | 100 | 9.2 | 19 | 3.7 | – | – | – | – | – |
| CN(CCc1ccccc1)C(=O)Cc1ccc(OCCCCOc2ccc(CCCC(=O)O)cc2)cc1 | 0.6 | 16 | 38 | 22 | 3.7 | 60 | 0 | 0 | 100 | 7.2 |

Second part, led by results:

| log K [1] | IC50 [2] [µM] | SMILES | inhibition in vivo at 100 mg/kg (Rattus norvegicus) [%] | inhibition in vivo at 200 mg/kg (Mus musculus [3]) [%] | inhibition in vivo at 200 mg/kg (Mus musculus [4]) [%] | Activity (Mus musculus [5]) [%] | Activity (Mus musculus [6]) [%] | Activity (Mus musculus [7]) [%] | Activity (Mus musculus [8]) [%] | Activity (Mus musculus [9]) [cm] |
| --- | --- | --- | --- | --- | --- | --- | --- | --- | --- | --- |
| 0.458 | 31 | CC(C(=O)O)c1ccc(OCCCCOc2ccc(CC(=O)N(C)CCc3ccccc3)cc2)cc1 (stereo not given) | 63 | 19 | 0 | 100 | 0 | 20 | 100 | 7.2 |
| 0.604 | 10 | CC(Cc1ccc(OCCCCOc2ccc(CC(=O)N(C)CCc3ccccc3)cc2)cc1)C(=O)O (stereo not given) | 37 | 10 | 7.4 | – | – | – | – | – |
| 0.462 | 8.7 | CN(CCc1ccccc1)C(=O)Cc1ccc(OCCCCOc2ccc(/C=C/C(=O)O)cc2)cc1 | 20 | 22 | 6.7 | – | – | – | – | – |
| 0.451 | 10 | CN(CCc1ccccc1)C(=O)Cc1ccc(OCCCCOc2ccc(CCC(=O)O)cc2)cc1 | 30 | 13 | 3.4 | – | – | – | – | – |
| 0.502 | 8.2 | CC(Cc1ccc(OCCCOc2ccc(CC(=O)N(C)CCc3ccccc3)cc2)cc1)C(=O)O (stereo not given) | – | – | – | – | – | – | – | – |
| 0.38 | 19 | CC(CCc1ccc(OCCOc2ccc(CC(=O)N(C)CCc3ccccc3)cc2)cc1)C(=O)O (stereo not given) | 14 | 14 | 3.7 | – | – | – | – | – |
| 0.432 | 9.1 | CC(C(=O)O)c1ccc(OCCCOc2ccc(CC(=O)N(C)CCc3ccccc3)cc2)c(Cl)c1 (stereo not given) | – | – | – | – | – | – | – | – |
| 0.336 | 8.5 | CN(CCc1ccccc1)C(=O)Cc1ccc(OCCCOc2ccc(/C=C/C(=O)O)cc2)cc1 | 13 | 21 | 3.7 | – | – | – | – | – |
